For 13 compounds, TGI and GI50 results are on record in PubChem BioAssay (NCI).

SMILES strings stand for the structures.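 The compound was tested at five concentrations on cells cultured in 96-well plates, with a 48-hour exposure period. Abbreviation: GI50, concentration required for 50% inhibition of growth. TGI: total growth inhibition.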 Where only a bound is given, the exact number is not on record here.

Common to all, as to test: NCI tumour cell line growth inhibition, 48 h
Assay [1] has as its system UACC-257 melanoma.
The test system of assay [2] is MALME-3M melanoma.
Assay [3] concerns KM12 colon.
In assay [4] the test system is SK-MEL-28 melanoma.
Assay [5] deals with A549 NSCLC.
The subject of assay [6] is M14 melanoma.
Assay [7] deals with HOP-92 NSCLC.
Assay [8] concerns UACC-62 melanoma.
Assay [9] deals with NCI-H522 lung.

In the case of `Cc1ccc([N+]2=NC(c3ccccc3)=NN(c3ccccc3)C2)cc1`, the TGI in [1], in [2], in [3], in [4] and in [5] was over 100 µM each time.

Take `C=CCCC(=O)CC(=O)OCc1ccccc1`: the TGI in assay [1], in assay [2], in assay [6], in [3], in assay [7] and in assay [5] was over 100 µM throughout. This compound gave a TGI in [8] of over 100 µM.

On to `CCOc1ccccc1NC(=O)C1=C(C)NC(C)=C(C(=O)Nc2ccccc2OCC)C1c1cccc([N+](=O)[O-])c1`, for which the TGI in assay [1] is over 100 µM; in assay [2], over 100 µM; in assay [6], over 100 µM; in [3] it was over 100 µM; in assay [4] it was over 100 µM; in [7], 41.3 µM. Further, the TGI in assay [5] and in [9] was over 100 µM each time.

`COC1CC(n2cc(F)c(N)nc2=O)OC1CO` (stereo unspecified): the TGI in assay [1], in assay [2], in assay [6], in assay [3], in assay [4] and in assay [7] was over 100 µM throughout. The TGI in assay [5] and in assay [9] was over 100 µM throughout.

Turning to `CN1C/C(=C\c2ccc(C(=O)O)cc2)C(=O)/C(=C/c2ccc(C(=O)O)cc2)C1`, the TGI in assay [1], in assay [2], in assay [6], in assay [3], in assay [4] and in assay [7] was over 100 µM each time. Moreover, the TGI in assay [5] and in [8] was over 100 µM in each case.

On to `CC/C(C)=C1\CCC(CN(C)C)C1=O` (stereo unspecified), for which the TGI worked out at 31.4 µM in [1]; 39.1 µM in assay [2]; 33.6 µM in assay [6]; 28.4 µM in assay [3]; 38.6 µM in [4]; 46.2 µM in assay [7]. Also, the figures for the TGI in assay [5] and in assay [8] were 49.2 µM and over 100 µM, respectively.

On to `Oc1ccc(O)c(-n2cccn2)c1-n1cccn1`, for which the TGI in [2], in [6], in assay [3], in assay [4], in assay [7] and in [5] was over 100 µM in each case. Also, the values for the TGI in assay [9] and in assay [8] were 73.1 µM and over 100 µM, respectively.

In the case of `c1ccc(-c2cc3n4c(-c5ccccc5)nn(-c5ccccc5)c4cnc-3n2)cc1`, the GI50 is over 50 µM in assay [1]; 4.58 µM in assay [2]; over 50 µM in assay [6]; over 50 µM in [3]; 12 µM in assay [7]; over 50 µM in assay [5]. Further, the GI50 in [9] and in [8] was over 50 µM each time. The TGI in assay [1], in assay [2], in assay [6], in assay [3], in assay [7] and in [5] was over 50 µM each time. Besides, the TGI in assay [9] and in assay [8] was over 50 µM throughout.

For the compound `N#CNC1=NCCC(=O)N1CCc1c[nH]c2ccccc12`, the TGI in assay [1], in assay [6], in [3], in assay [4], in assay [5] and in assay [8] was over 100 µM throughout.

Consider `CC(=O)[O][Hg][c]1s[c]([Hg][O]C(C)=O)[c]([Hg][O]C(C)=O)[c]1[Hg][O]C(C)=O`, for which the GI50 in [2] was 3.16 µM; in assay [6] it was 1.98 µM; in [3], 22.6 µM; in assay [4] it was 1.18 µM; in assay [7], 2.92 µM; in assay [5], 55.8 µM. Further, the GI50 was 2.54 µM in assay [9] and 6.47 µM in assay [8]. For the same compound, the TGI in assay [2] is 17.2 µM; in [6], 14 µM; in [3], over 100 µM; in assay [4], 5.52 µM; in [7], 5.88 µM; in assay [5] it was over 100 µM. Besides, the TGI was over 100 µM in assay [9] and 27.4 µM in [8].

`CC1OC(=O)N2CCC=CC12` (stereo unspecified): the TGI in assay [1], in assay [2], in [3], in assay [4], in [5] and in [9] was over 100 µM in each case. Besides, the TGI in assay [8] is over 100 µM.

Take `CCOC(=O)CC(C)C1(C=O)CCCCC1=O` (stereo unspecified): the TGI in assay [1], in [2], in [6], in [3], in assay [4] and in [5] was over 100 µM in each case. Further, the TGI in [9] and in assay [8] was over 100 µM in each case.

As for `C#C[C@@H](CCCC)OC(=O)N[C@H](C)c1ccccc1`, the TGI in assay [1], in [6], in assay [3], in assay [4], in [5] and in assay [8] was over 100 µM in each case.
